Test results published in publication PMC5556071, “ATR inhibition facilitates targeting of leukemia dependence on convergent nucleotide biosynthetic pathways” (Nature Communications, 2017).
Read-outs that look alike come from different tables or passages of the source.

Key:
[1] = test system: CEM cells; test: Apoptosis assay, Annexin V and PI staining; assay type: cell-based, human; details: 500 nM 3-AP, 1 µM VE-822, 1 µM dCKi, 24 h
Experimental: Apoptosis and cell death were assayed using Annexin V-FITC and PI according to manufacturer’s instructions (FITC Annexin V Apoptosis Detection Kit, BD Sciences, #556570). […]
Annexin V staining. Cells were treated with the indicated treatments for 24 or 72 h, then collected and washed twice with 1 mL of FACS buffer (2% FBS in PBS). Induction of apoptosis and cell death were assayed by staining the cells with Annexin V-FITC and PI according to manufacturer’s instructions (FITC Annexin V Apoptosis Detection Kit, BD Sciences, #556570).
FACS analysis. All flow cytometry data were acquired on five-laser LSRII cytometers (BD) for analysis, and analyzed using FlowJo software (Tree Star). […]

[2] = test system: CEM cells; test: Phospho-histone 3 (H3 pS10) staining, flow cytometry; assay type: cell-based, human; details: 500 nM 3-AP, 1 µM VE-822, 1 µM dCKi, 24 h
Experimental: Phospho-histone 3 staining. Cells were treated with drug combinations of three drugs. 24 h following treatment, cells were fixed and permeabilized with 1% PFA and 1X Perm/wash solution respectively.
Following fixation and permeabilization, cells were stained intracellularly with pH3 Ser10 antibody conjugated to AF647 (Cell signaling, #12230). Cells were then washed with PBS, stained with 0.5 mL of DAPI for DNA content (1 µg/mL in 2% FBS in PBS) before data acquisition. […]
FACS analysis. All flow cytometry data were acquired on five-laser LSRII cytometers (BD) for analysis, and analyzed using FlowJo software (Tree Star). The cell cycle durations were calculated using equations for multiple time-point measurements according to previously published methods (Terry and White, 2006).

[3] = Plasma pharmacokinetics after single dose oral co-administration; assay type: in vivo, C57BL/6 mice
Experimental: 3-AP, dCKi, VE-822 plasma concentrations were assessed at 0.5, 1, 2, 4, 6, 12 and 24 h following oral administration. Blood samples were collected in heparin-EDTA tubes by the retro-orbital technique and spun down to collect the supernatants. Four parts of methanol were added to plasma samples to precipitate proteins, and the supernatant was collected. Twenty microliter samples were injected onto a reverse phase column equilibrated in water 0.1% formic acid for LC-MS/MS-MRM analysis in positive ion mode. Plasma concentrations were determined by comparison to previously generated standard curves. A population pharmacokinetic modeling (NONMEM v. 7.2) with first-order conditional estimation (FOCE) was used to characterize the Cmax, half-life, and area under the curve (AUC) for 3-AP, dCKi, and VE-822. 3-AP and VE-822 were best described with a one compartment model while dCKi was best described by a two-compartment model. All three drugs were well described with first order absorption and a proportional error model. Clearance and volume were scaled by weight. […]
Plasma collection and pharmacokinetic assays. Blood was collected in heparin-EDTA tubes by retro-orbital technique at time points 0.25, 1, 6, and 24 h time points from the first set of mice and 0.5, 4, and 12 h from the second set of mice. Blood samples were spun at 2000 x g for 15 min and the plasma supernatants were collected. All plasma samples were frozen down at –20 °C before sample processing. The stock solutions of 3-AP, VE-822, DI-82, 3-AP analog (NSC 266749), VE-821 (Selleckchem), DI-39 were prepared individually by dissolving the appropriate amount of each drug in a known volume of dimethyl sulfoxide (DMSO) to a 10 mM concentration and were stored at –20 °C before use. The 3-AP analog, VE-821 and DI-39 (internal standards) were diluted to 200 nM in methanol to make the internal solution. The calibration standards were prepared by spiking working stock solutions of 3-AP, VE-822 and DI-82 in plasma from untreated mice to give 0.01-10 pmol/µL range. Each 20 µL calibration standard sample was mixed with 60 µL of internal solution (methanol with 200 nM internal standards) and vortexed for 30 s. Following centrifugation at 15,000 x g for 10 min, approximately 60 µL of sample was carefully transferred into HPLC injector vials for LC-MS/MS-MRM analysis.
Plasma samples were processed the same way as the calibration standard samples. 20 μL samples were injected onto a reverse phase column, (Thermo Scientific Hypersil GOLD column 3.0 µm; 2.1 x 100 mm) equilibrated in water/formic acid, 100/0.1, and eluted (200 μL/min) with an increasing concentration of solvent […]
The effluent from the column was directed to the Agilent Jet Stream ion source connected to the triple quadrupole mass spectrometer (Agilent 6460) operating in the multiple reaction monitoring (MRM) mode using previously optimized settings. The following drug precursor→fragment ion transitions were used: 3-AP

[4] = 3-AP 15, VE-822 40, dCKi 50 mg kg−1
[5] = C57BL/6, mouse, 40 mg/kg, 3-AP 15, VE-822 40, dCKi 50 mg kg−1

## COc1ccc(-c2nc([C@@H](C)Sc3nc(N)cc(N)n3)c(C)s2)cc1OCCNS(C)(=O)=O [dCKi]
[1]
  Annexin V+ cells (apoptosis induction): 11.1%
[2]
  H3 pS10 plot, upper percentage (gate not given): 2.4%
[3]; [4]
  AUC: 63 ± 4 µM·h
  Cmax: 6400 ± 700 nM
  t1/2: 8.5 ± 3.0 h

## CNCc1ccc(-c2cc(-c3nc(-c4ccc(S(=O)(=O)C(C)C)cc4)cnc3N)on2)cc1 [VE-822]
[1]
  Annexin V+ cells (apoptosis induction): 10.3%
[2]
  H3 pS10 plot, upper percentage (gate not given): 6.5%
[3]; [5]
  Cmax: 1800 ± 200 nM
  half-life: 17 ± 1 h
[3]; C57BL/6, mouse, 40 mg/kg, 3-AP 15, VE-822 40, dCKi 50 mg kg−1, read-out: AUC
  AUC: 55 ± 2 µM·h

## NC(=S)N/N=C/c1ncccc1N [3-AP]
[1]
  Annexin V+ cells (apoptosis induction): 31.0%
[2]
  H3 pS10 plot, upper percentage (gate not given): 1.8%
[3]; [4]
  AUC: 9.2 ± 1.8 µM·h
  Cmax: 2300 ± 700 nM
  t1/2: 3.3 ± 1.0 h
